# ChEMBL document CHEMBL1158652, “Constituents of Helenium amarum. II. Isolation and Characterization of Heleniamarin and Other Constituents” (1979)
# System: KB
# Assay: Cytotoxicity against human KB cells
# Type: functional
# Details: read-out: ED50 (the source's name)
row,SMILES,EC50
1,C=C1C(=O)O[C@H]2C[C@@H](C)[C@@H]3C=CC(=O)[C@@]3(C)C[C@H]12 [AROMATICIN],2 µg/mL
2,COc1c(O)cc2oc(-c3ccc(O)cc3)cc(=O)c2c1O [HISPIDULIN],96 µg/mL
3,C=C1C(=O)O[C@H]2C[C@@H](C)[C@@H]3C=CC(=O)[C@@]3(C)[C@H](O)[C@H]12 [MEXICANIN I],1.9 µg/mL
4,C[C@@H]1C[C@@H]2OC(=O)[C@]3(C)[C@H]2[C@@H](OC3(C)O)[C@]2(C)C(=O)C=C[C@@H]12 (some centres undefined) [TENULIN],26 µg/mL
